Positions of bridges follow the written chain, without caps; N, C: chain ends. Residues, ends and D or L forms follow the SMILES beside them.

The subject of one series is trypsin. Put plainly: Enzymatic stability with trypsin (RP-HPLC profile against control). The settings on record: trypsin (1 μL of 0.5 μg/μL), 37 °C, 10 μg peptide in 100 μL 100 mM ammonium bicarbonate buffer pH 7.8, RP-HPLC profile compared with control without trypsin, read-out: peptide not degraded when incubated with trypsin. The format is in vitro ADME. The method, then: CRPs with a well-defined disulfide core are known for their compact structure and high resistance to heat and enzymatic degradation. This stability is an important characteristic for CRPs as putative bioactive peptides in order for them to survive decoction processes in traditional herbal preparations and to retain both bioavailability and pharmacological effects by oral administration. […] A total of 96% of lyba1 remained after heating in boiling water at 100 °C for 2 h. Similarly, 99% of the peptide remained intact after incubation in 2 M HCl for 3 h, and 99% of the peptide was not degraded when incubated with trypsin for 3 h (Fig. 5).
Figure 5 Stability assays of lybatide, lyba1. (A) Thermal stability of lyba1 incubated at 100 °C for 2 h. (B) Acidic condition stability of lyba1 incubated in 2.0 M HCl […] for […]. […] (D) Stability of lyba1 incubated in human serum for 60 min at 37 °C, DALK was used as a control. The molecular weight of the peak was determined by MALDI-MS. TEXT PRINTED IN THE PICTURE: (A) lyba1: Cald.: 3509; Found: 3509 | (B) lyba1: Cald.: 3509; Found: 3509 | (C) lyba1: Cald.: 3509; Found: 3509 DOUBTS OF THE COPYIST ABOUT THIS PICTURE: lyba1, panels A-C: 'Cald.' and 'Found' are printed with no measure or unit. I took them as molecular weight, but they may be only mass-spectrometric peak identification. […]

For series [1], the system named is adenocarcinomic human alveolar basal epithelial cells (A549, ATCC CCL-185). Put plainly: MTT cell toxicity assay. It counts as cell-based. The settings on record: overnight incubation, tested up to 100 μM (method section: 0.01-10 μM). The method, then:
(§1) Many CRPs including defensins, thionins and hevein-like peptides display antimicrobial or cytotoxic activity.
(§2) Lybatide lyba1 was tested for its cytotoxicity effect against human umbilical vein endothelial cells (HUVEC-CS, ATCC CRL-2873), monkey kidney epithelial cells (Vero, ATCC CCL-81) and adenocarcinomic human alveolar basal epithelial cells (A549, ATCC CCL-185). Briefly, 1 × 10^4 cells per well in 100 μL were seeded into a 96-well plate (TPP, Switzerland) and incubated overnight. The supernatant was removed, and the cells were washed twice with phosphate buffered saline (PBS; Gibco, USA). The cells were then treated with lyba1 at concentrations 0.01 μM, 0.1 μM, 1 μM, and 10 μM and incubated overnight, with 10% DMSO used as positive control.
(§3) After incubation, MTT was added to the wells and the plate was incubated for 1.5 h at 36.7 °C. Next, 200 μL of 100% DMSO was added, incubated for 2 h, and the absorbance was determined with a microplate reader at 550 nm wavelength.

Series [2] relates to human umbilical vein endothelial cells (HUVEC-CS, ATCC CRL-2873). Put plainly: MTT cell toxicity assay. It counts as cell-based. To be noted: overnight incubation, tested up to 100 μM (method section: 0.01-10 μM). The method, then:
as §1, §2, §3

Series [3] has as its system monkey kidney epithelial cells (Vero, ATCC CCL-81). Put plainly: MTT cell toxicity assay. It counts as cell-based. The settings on record: overnight incubation, tested up to 100 μM (method section: 0.01-10 μM). As for the experimental part: as §1, §2, §3

Turning to `CC[C@H](C)[C@@H]1NC(=O)[C@@H]2CSSC[C@H](NC(=O)[C@H](CO)NC(=O)[C@@H](N)CC(=O)O)C(=O)N[C@@H](CO)C(=O)N[C@@H](CCC(=O)O)C(=O)N[C@@H](Cc3ccc(O)cc3)C(=O)N[C@H]3CSSC[C@@H](C(=O)N4CCC[C@H]4C(=O)N[C@@H](CO)C(=O)O)NC(=O)[C@H](CSSC[C@H](NC(=O)[C@H](CO)NC(=O)[C@H](CC(N)=O)NC(=O)[C@H](CC(N)=O)NC(=O)[C@H](CO)NC3=O)C(=O)N3CCC[C@H]3C(=O)N[C@@H](Cc3ccc(O)cc3)C(=O)N[C@H]3CSSC[C@H](NC(=O)[C@H](CC(C)C)NC(=O)[C@H]([C@@H](C)O)NC(=O)[C@H](Cc4ccc(O)cc4)NC(=O)[C@H](CC(C)C)NC(=O)[C@H](CCCCN)NC(=O)[C@H](CCC(N)=O)NC(=O)CNC(=O)[C@H](CC(=O)O)NC3=O)C(=O)N2)NC(=O)[C@H]([C@@H](C)O)NC(=O)[C@H](CC(N)=O)NC1=O` [lyba1] (H-DSCSEYCSNNSCPYCDGQKLYTLCCINTCCPS-OH; disulfide 3-25, 7-30, 12-29, 15-24), the remaining at 3 h, 100 µg/mL in the series with trypsin was 99%. The cytotoxic effect result in series [1], in series [2] and in series [3] was “did not display any cytotoxic effect” throughout.

The record behind these values is PMC5507927, “Lybatides from Lycium barbarum Contain An Unusual Cystine-stapled Helical Peptide Scaffold” (Scientific Reports, 2017).
